Laboratory results taken from PMC7587962, “Evaluation of Cytotoxicity and α-Glucosidase Inhibitory Activity of Amide and Polyamino-Derivatives of Lupane Triterpenoids” (Molecules, 2020).

Legend:
A549/ATCC = experiment: NCI-60 SRB screen: non-small cell lung cancer A549/ATCC; assay type: cell-based, human; details: A549/ATCC
HCC-2998 = experiment: NCI-60 SRB screen: colon cancer HCC-2998; assay type: cell-based, human; details: HCC-2998
RXF 393 = experiment: NCI-60 SRB screen: renal cancer RXF 393; assay type: cell-based, human; details: RXF 393
HL-60(TB) = experiment: NCI-60 SRB screen: leukemia HL-60(TB); assay type: cell-based; details: Homo sapiens, 48 h, HL-60(TB)
RPMI-8226 = experiment: NCI-60 SRB screen: leukemia RPMI-8226; assay type: cell-based; details: Homo sapiens, 48 h, RPMI-8226
CCRF-CEM = experiment: NCI-60 SRB screen: leukemia CCRF-CEM; assay type: cell-based; details: Homo sapiens, 48 h
SN12C = experiment: NCI-60 SRB screen: renal cancer SN12C; assay type: cell-based, human
IGROV1 = experiment: NCI-60 SRB screen: ovarian cancer IGROV1; assay type: cell-based, human; details: IGROV1
OVCAR-4 = experiment: NCI-60 SRB screen: ovarian cancer OVCAR-4; assay type: cell-based; details: Homo sapiens; OVCAR-4; five concentrations, 48 h, SRB; read-out: GI50
NCI-H460 = experiment: NCI-60 SRB screen: non-small cell lung cancer NCI-H460; assay type: cell-based; details: Homo sapiens, 48 h, NCI-H460
Melanoma subpanel = experiment: NCI-60 screen, subpanel Melanoma
NCI-H23 = experiment: NCI-60 SRB screen: non-small cell lung cancer NCI-H23; assay type: cell-based, human; details: NCI-H23
UO-31 = experiment: NCI-60 SRB screen: renal cancer UO-31; assay type: cell-based, human; details: UO-31
ACHN = experiment: NCI-60 SRB screen: renal cancer ACHN; assay type: cell-based, human
SNB-19 = experiment: NCI-60 SRB screen: CNS cancer SNB-19; assay type: cell-based, human; details: SNB-19
MOLT-4 = experiment: NCI-60 SRB screen: leukemia MOLT-4; assay type: cell-based; details: Homo sapiens, 48 h, MOLT-4
DU-145 = experiment: NCI-60 SRB screen: prostate cancer DU-145; assay type: cell-based, human; details: DU-145
Leukemia subpanel = experiment: NCI-60 screen, subpanel Leukemia
SF-539 = experiment: NCI-60 SRB screen: CNS cancer SF-539; assay type: cell-based, human; details: SF-539
OVCAR-5 = experiment: NCI-60 SRB screen: ovarian cancer OVCAR-5; assay type: cell-based, human; details: OVCAR-5
HT29 = experiment: NCI-60 SRB screen: colon cancer HT29; assay type: cell-based; details: Homo sapiens, HT29
NCI-H522 = experiment: NCI-60 SRB screen: non-small cell lung cancer NCI-H522; assay type: cell-based, human; details: NCI-H522
KM12 = experiment: NCI-60 SRB screen: colon cancer KM12; assay type: cell-based, human; details: KM12
NSCL cancer subpanel = experiment: NCI-60 screen, subpanel NSCL cancer
A498 = experiment: NCI-60 SRB screen: renal cancer A498; assay type: cell-based, human; details: A498
Renal Cancer subpanel = experiment: NCI-60 screen, subpanel Renal Cancer
SF-295 = experiment: NCI-60 SRB screen: CNS cancer SF-295; assay type: cell-based, human; details: SF-295
NCI-H322M = experiment: NCI-60 SRB screen: non-small cell lung cancer NCI-H322M; assay type: cell-based, human
UACC-257 = experiment: NCI-60 SRB screen: melanoma UACC-257; assay type: cell-based, human; details: UACC-257
MDA-MB-468 = experiment: NCI-60 SRB screen: breast cancer MDA-MB-468; assay type: cell-based, human
PC-3 = experiment: NCI-60 SRB screen: prostate cancer PC-3; assay type: cell-based, human; details: PC-3
[1] = tested on: 60 human tumor cell lines; details: single dose 10 µM
HOP-92 = experiment: NCI-60 SRB screen: non-small cell lung cancer HOP-92; assay type: cell-based, human; details: HOP-92
EKVX = experiment: NCI-60 SRB screen: non-small cell lung cancer EKVX; assay type: cell-based, human
K-562 = experiment: NCI-60 SRB screen: leukemia K-562; assay type: cell-based, human; details: K-562
MDA-MB-435 = experiment: NCI-60 SRB screen: melanoma MDA-MB-435; assay type: cell-based, human; details: MDA-MB-435
M14 = experiment: NCI-60 SRB screen: melanoma M14; assay type: cell-based, human; details: M14
[2] = Homo sapiens, five concentrations, 48 h, SRB, read-out: GI50
[3] = single dose 10 µM, read-out: Percentage Cell Growth
[4] = five concentrations, SRB, read-out: GI50

## C=C(C)[C@@H]1CC[C@]2(C(=O)NCCNCCNCCN)CC[C@]3(C)[C@H](CC[C@@H]4[C@@]5(C)CC[C@H](O)C(C)(C)[C@@H]5CC[C@]43C)[C@@H]12 [Compound 6]
A549/ATCC; single dose 10 µM
  Percentage Cell Growth: −64.63%
A549/ATCC; [2]
  GI50: 4.97 µM
HCC-2998; single dose 10 µM
  Percentage Cell Growth: −90.36%
HCC-2998; [2]
  GI50: 14.1 µM
RXF 393; [2]
  GI50: 13.2 µM
RXF 393; single dose 10 µM
  Percentage Cell Growth: −82.88%
HL-60(TB); [3]
  activity at 10 µM: -24%
HL-60(TB); [4]
  GI50: 7.33 µM
RPMI-8226; [3]
  activity at 10 µM: -8.15%
RPMI-8226; [4]
  GI50: 2.81 µM
CCRF-CEM; [3]
  activity at 10 µM: 5.18%
CCRF-CEM; [4]
  GI50: 4.55 µM
SN12C; [2]
  GI50: 13.5 µM
SN12C; single dose 10 µM
  Percentage Cell Growth: −53.68%
IGROV1; Homo sapiens, IGROV-1, five concentrations, 48 h, SRB, read-out: GI50
  GI50: 16.1 µM
IGROV1; single dose 10 µM
  Percentage Cell Growth: −81.43%
OVCAR-4
  GI50: 14.1 µM
NCI-H460; [3]
  activity at 10 µM: -100%
NCI-H460; [4]
  GI50: 14.7 µM
Melanoma subpanel
  MID b, average sensitivity of all cell line of particular subpanel: 13.58 µM
  Selectivity, ratio MID a: MID b: 0.89
NCI-H23; [2]
  GI50: 14.7 µM
NCI-H23; single dose 10 µM
  Percentage Cell Growth: −51.70%
UO-31; [2]
  GI50: 11.7 µM
UO-31; single dose 10 µM
  Percentage Cell Growth: −100.00%
ACHN; [2]
  GI50: 12 µM
ACHN; single dose 10 µM
  Percentage Cell Growth: −100.00%
SNB-19; [2]
  GI50: 12.9 µM
SNB-19; single dose 10 µM
  Percentage Cell Growth: −74.52%
MOLT-4; [3]
  activity at 10 µM: 1.18%
MOLT-4; [4]
  GI50: 11.5 µM
DU-145; single dose 10 µM
  Percentage Cell Growth: −8.34%
DU-145; [2]
  GI50: 14.1 µM
Leukemia subpanel
  MID b, average sensitivity of all cell line of particular subpanel: 6.64 µM
  Selectivity, ratio MID a: MID b: 1.83
SF-539; [2]
  GI50: 11.1 µM
SF-539; single dose 10 µM
  Percentage Cell Growth: −100.00%
OVCAR-5; [2]
  GI50: 18.6 µM
OVCAR-5; single dose 10 µM
  Percentage Cell Growth: −83.37%
HT29; HT-29, 48 h, single dose 10 µM, read-out: Percentage Cell Growth
  activity at 10 µM: -39.6%
HT29; HT-29, five concentrations, 48 h, SRB, read-out: GI50
  GI50: 14.6 µM
NCI-H522; [2]
  GI50: 10.3 µM
NCI-H522; single dose 10 µM
  Percentage Cell Growth: −57.83%
KM12; [2]
  GI50: 6.81 µM
KM12; single dose 10 µM
  Percentage Cell Growth: −52.23%
NSCL cancer subpanel
  MID b, average sensitivity of all cell line of particular subpanel: 11.88 µM
  Selectivity, ratio MID a: MID b: 1.02
A498; single dose 10 µM
  Percentage Cell Growth: −32.64%
A498; [2]
  GI50: 19.6 µM
Renal Cancer subpanel
  MID b, average sensitivity of all cell line of particular subpanel: 13.02 µM
  Selectivity, ratio MID a: MID b: 0.93
SF-295; [2]
  GI50: 13.8 µM
SF-295; single dose 10 µM
  Percentage Cell Growth: −84.72%
NCI-H322M; [2]
  GI50: 15.1 µM
NCI-H322M; single dose 10 µM
  Percentage Cell Growth: −83.84%
UACC-257; [2]
  GI50: 15.1 µM
UACC-257; single dose 10 µM
  Percentage Cell Growth: −39.58%
MDA-MB-468; [2]
  GI50: 8.88 µM
MDA-MB-468; single dose 10 µM
  Percentage Cell Growth: −48.60%
PC-3; [2]
  GI50: 2.95 µM
PC-3; single dose 10 µM
  Percentage Cell Growth: 1.07%
[1]; cell lines with negative growth
  cancer cell lethality, range of percentage growth: −4.72% to −100%
[1]; number of cell lines
  cases of cancer cell lethality: 57
HOP-92; single dose 10 µM
  Percentage Cell Growth: −65.35%
HOP-92; [2]
  GI50: 4.61 µM
EKVX; [2]
  GI50: 10.5 µM
EKVX; single dose 10 µM
  Percentage Cell Growth: −11.36%
K-562; Homo sapiens, K562, five concentrations, 48 h, SRB, read-out: GI50
  GI50: 6.9 µM
K-562; single dose 10 µM
  Percentage Cell Growth: −15.78%
MDA-MB-435; [2]
  GI50: 13.4 µM
MDA-MB-435; single dose 10 µM
  Percentage Cell Growth: −89.21%
M14; [2]
  GI50: 11 µM
M14; single dose 10 µM
  Percentage Cell Growth: −30.98%
